Consider 6 compounds from publication PMC9229949 (Pharmaceutics, 2022).

The term inhibition denotes the relative decrease from the control value, in per cent. Usually CC50 stands for the concentration that lowers cell viability or growth by half.

Molecules are shown by their SMILES. Read-outs that look alike come from different tables or passages of the source.

Data set [1] concerns β-hematin formation from Fe(III)PPIX (hematin). Briefly: β-hematin inhibition activity, oxidizing conditions (O-BHIA, hematin). Format: biochemical. Conditions: 18 h incubation; median ± S.E.M. of three experiments; free bases; read-out: β-Hematin Inhibitory Activity (BHIA) O-BHIA (Hematin), IC50. How it is done:
(§1) A hemin chloride (10 μL of 4 mM stock in 80% DMSO) aliquot was dispensed in a U bottom 96-well microplate, and then, 10 μL of 0.1 M NaOH (O-BHIA) or 4 mM reduced glutathione in PBS at pH 7.0 (R-BHIA) was added, and plates were sealed and incubated at 37 °C for 2 h. After this, 10 μL of the drug dissolved in DMSO was added and incubated for 2 h, followed by the addition of 180 μL of sodium acetate buffer (1.0 M, pH 5.2) and 10 μL of nonionic detergent IGEPAL-CA-630 solution in methanol (10 mg/mL). Plates were sealed and incubated at 37 °C for 18 h. […] The reaction was stopped by the addition of 50 μL of a sodium dodecyl sulfate solution (5.0% v/v in 0.1 M bicarbonate buffer at pH 9.0). Plates were centrifuged at 3700 rpm for 5 min, and 100 μL of supernatant was placed in a separate plate. […] Two independent experiments were performed, and each drug concentration was tested in quadruplicate concentrations.

For data set [2], the system named is β-hematin formation from Fe(II)PPIX (heme). Briefly: β-hematin inhibition activity, reducing conditions (R-BHIA, heme). Type of data set: biochemical. The note with it: 18 h incubation; median ± S.E.M. of three experiments; free bases; read-out: β-Hematin Inhibitory Activity (BHIA) R-BHIA (Heme), IC50. The procedure:
as §1

Data set [3] concerns P. falciparum 3D7 (CQ-susceptible) asexual blood stages. The data set can be described thus: In vitro activity against asexual blood stages of P. falciparum, CQ-susceptible strain 3D7 (HRP2 ELISA). Type of data set: cell-based. The note with it: Plasmodium falciparum, read-out: P. falciparum, IC50 ± S.E.M., CQ-Susceptible 3D7. The procedure: (§2) The plates were incubated for 72 h at 37 °C in controlled atmosphere. After frozen and thawing the plates, hemolyzed cultures were homogenized by vortexing the plates. The antiparasitic activity was determined using the HRP2 ELISA-based assay Malaria Ag Celisa kit (ref KM2159, Cellabs PTY LDT, Brookvale, Australia). […] IC50s are expressed as means of three to five experiments.
(In general: In an ELISA, binding on a coated surface is turned into a signal by an enzyme label.)

Data set [4] concerns P. falciparum W2 (CQ-resistant) asexual blood stages. Briefly: In vitro activity against asexual blood stages of P. falciparum, CQ-resistant strain W2 (HRP2 ELISA). Type of data set: cell-based. The note with it: Plasmodium falciparum, read-out: P. falciparum, IC50 ± S.E.M., CQ-Resistant W2. How it is done: as §2
For data set [5], the system named is β-hematin formation. The data set can be described thus: β-hematin formation inhibition by infrared spectroscopy. More on the design: key: Yes indicates β-hematin inhibition; No indicates β-hematin formation. Type of data set: biochemical. Conditions: 3:1 ratio of drug:hematin, qualitative by infrared. How it is done: The conversion of hemin to β-hematin was determined by infrared (IR) spectroscopy as described by Egan et al.. […] Then, 0.3 mL of 0.1 M HCl and 1.7 mL of sodium acetate buffer ([…], pH 5) were added at the same temperature. […] The solid was dried and IR spectra were obtained using attenuated total reflection (ATR) using chloroquine as a positive control.

Data set [6] in a line: Interaction with reduced glutathione (GSH) by monochlorobimane fluorescence assay. Conditions: 2 h incubation, 10 to 0.3 drug:GSH molar ratio. How it is done:
Ten microliters per well of a solution of 2.0 mM reduced glutathione (Sigma-Aldrich, St. Louis, MO, USA, dissolved in PBS pH 7.2) was distributed in a 96-well microplate containing 170 μL/well of DMSO/PBS (1:1; v/v). Stock solutions of compounds were diluted in DMSO, and 10 μL was added in quadruplicate in the respective wells to a final concentration of 0.015 to 0.5 mM. […] After 1 h incubation at room temperature, fluorescence was recorded (λex = 360 nm, λem = 440 nm). Blank subtraction was performed prior to monochlorobimane addition, and controls included untreated wells (no drug) and no GSH. The results were expressed as a percentage of inhibition of GSH binding to monochlorobimane in comparison to control without compound. At least two independent experiments were performed.

The subject of data set [7] is 3D7 P. falciparum gametocytes stages I/III. Briefly: P. falciparum young gametocytes (stages I/III), luciferase viability. Type of data set: cell-based. Conditions: Plasmodium falciparum, read-out: IC50, gametocytes of P. falciparum, Stages I/III. How it is done: (§3) The activity of compounds was assessed against young gametocytes (stages I/III) and against mature gametocytes (stage V). […] A volume of 100 μL of 3D7elo1-pfs16-CBG99 gametocytes of 3D7 P. falciparum at 0.5–1% parasitemia and 2% hematocrit were dispensed. […] Luciferase activity was used to determine gametocytes viability. A volume of 100 µL of culture medium was removed from each well to increase hematocrit; 70 µL of resuspended culture was transferred to a black 96-well plate; 70 µL of D-luciferin (1 mM in citrate buffer 0.1 M, pH 5.5) was added. Luminescence measurements were performed after 10 min with 500 ms integration time. The IC50 was extrapolated from nonlinear regression analysis of the concentration–response curve.

Data set [8] relates to P. berghei sporozoites in Huh-7 cells. The data set can be described thus: P. berghei hepatic stages: infection of Huh-7 cells by luciferase-expressing sporozoites. Type of data set: cell-based. The note with it: Plasmodium berghei, Huh-7, 48 h, read-out: Sporozoites (Inhibition of Infection, %). The procedure:
Huh-7 cells at 1.0 × 10^4 per well were seeded in 96-well plates the day before drug treatment and infection. The culture medium was replaced by infection medium (culture medium supplemented with gentamicin (50 μg/mL) and amphotericin B (0.8 μg/mL)) containing the appropriate concentration of each compound for approximately 1 h prior to infection with sporozoites of firefly luciferase-expressing P. berghei, freshly obtained through the disruption of salivary glands of infected female Anopheles stephensi mosquitoes. An amount of the DMSO solvent equivalent to that present in the highest compound concentration was used as negative control. Sporozoite addition was followed by centrifugation at 1800× g for 5 min. and parasite infection load was measured 48 h after infection by using a bioluminescence assay (Biotium, Hayward, CA, USA). The effect of the compounds on the viability of Huh-7 cells was assessed by performing the AlamarBlue (Invitrogen, Waltham, MA, USA) assay according to the manufacturer’s protocol.

In data set [9] the test system is 3D7 P. falciparum gametocytes stage V. The data set can be described thus: P. falciparum mature gametocytes (stage V), luciferase viability. Format: cell-based. The note with it: Plasmodium falciparum, 3D7, 72 h, read-out: IC50, gametocytes of P. falciparum, Stage V. How it is done:
as §3

The nature of data set [10]: Cytotoxicity against J774 cells (CellTiter-Glo). The note with it: mouse, J774 macrophage cells; reference drug, J774; read-out: CC50 for J774. Type of data set: cell-based, murine. The procedure: (§4) In vitro cytotoxicity was assayed against two mammalian cell lineages, J774 (murine macrophages) and HepG2 (human hepatocellular carcinoma). […] Cell cultures from 60 to 80% confluence were trypsinized, washed in complete medium, and 4 × 10^4 cells were plated in 100 µL per well with complete medium in 96-well flat-bottom white plates for 24 h at 37 °C prior to the addition of the compounds. Triplicate aliquots of compound and the reference drugs (stock solution in DMSO) covering 7 different concentrations at 2-fold dilutions were added to the wells, and plates were incubated for 72 h more. After incubation for 72 h at 37 °C, plates were maintained at room temperature, the culture medium was removed, and 100 µL volume of CellTiter-Glo reagent was added to each well. The bioluminescence was measured using a microplate reader Filtermax F5 Multi-Mode instrument (Molecular Devices) and Softmax software. […] The selectivity index (S.I.) was estimated using the IC50s from mammalian cells divided by the IC50 obtained against the asexual blood stage P. falciparum.
(In general: Cellular ATP, detected with luciferase, serves as a proxy for viable cell number.)

Data set [11] in a line: Cytotoxicity against uninfected HepG2 cells (CellTiter-Glo). Type of data set: cell-based. The note with it: human, reference drug. The procedure: as §4

As for `C[C@@H]1CC[C@H]2[C@@H](C)C(=O)O[C@@H]3O[C@@]4(C)CC[C@@H]1[C@]32OO4` [Artemisinin (ARS), artemisinin], the IC50 in data set [1] was > 1000 µM; in data set [2], 60 ± 10 µM.

Consider `CCN(CC)CCCC(C)Nc1ccnc2cc(Cl)ccc12` (centres unmarked) [Chloroquine (CQ), chloroquine], for which the IC50 in data set [3] (3D7, 72 h) is 0.018 ± 0.002 µM; in [4] (W2, 72 h), 0.459 ± 0.021 µM; in [1], 230 ± 40 µM; in data set [2], 130 ± 30 µM. The “β-Hematin Inhibitory Activity (BHIA) Determined by IR” value in [5] is given as “Yes”. For the same compound, in data set [6], the “interaction with GSH” value is “neither CQ nor phenanthroline interacted with GSH”.

With `C[C@H]1[C@@H](O)O[C@@H]2O[C@@]3(C)CC[C@H]4[C@H](C)CC[C@@H]1[C@@]24OO3` [DHA, dihydroartemisinin], in [7] (3D7 strain, 72 h, mean ± S.D. of one experiment), the IC50 came out at 0.0123 ± 0.0054 µM.

In the case of `COc1cc(NC(C)CCCN)c2ncccc2c1` (centres unmarked) [Primaquine (PQ), primaquine], the IC50 was 1.12 ± 0.053 µM in data set [3] (3D7, 72 h incubation, HRP2 ELISA, mean ± S.E.M. of at least three experiments, AQ hydrochloride hydrate, PQ diphosphate, CQ diphosphate); 0.182 ± 0.016 µM in [4] (W2, 72 h incubation, HRP2 ELISA, mean ± S.E.M. of at least three experiments, AQ hydrochloride hydrate, PQ diphosphate, CQ diphosphate); 13.7 ± 7.6 µM in data set [7] (3D7, 72 h); 43.2 ± 10.6 µM in [9]; > 1000 µM in data set [1]; > 1000 µM in [2]. For the same compound, the inhibition at 10 µM in data set [8] was found to be 52%. For the same compound, in data set [5], the “β-Hematin Inhibitory Activity (BHIA) Determined by IR” value is “No”.

For the compound `COc1cccc2c1C(=O)c1c(O)c3c(c(O)c1C2=O)C[C@@](O)(C(=O)CO)C[C@@H]3O[C@H]1C[C@H](N)[C@H](O)[C@H](C)O1` [doxorubicin], the CC50 at 72 h in data set [10] is 0.44 ± 0.31 µM; in data set [11], < 0.12 µM.

Take `c1cnc2c(c1)ccc1cccnc12` [phenanthroline]: in data set [6], the “interaction with GSH” value is given as “neither CQ nor phenanthroline interacted with GSH”.
